This is an account of results in patent US12577247B2 (BUGWORKS RESEARCH, INC., priority 2021, dated 2026).

Molecules are shown by their SMILES.

A short description of the data set: Pharmacokinetic study in mice. The class given is in vivo, CD1 mice.

Usually Tmax stands for the time from dosing to the highest level.

`Cc1cccc(CCNc2nc3c(C)c(C)nn3c(N)c2C#N)n1` [Example 13, 7-amino-5-((2-(6-methylpyridin-2-yl)ethyl)amino)-2,3-dimethylpyrazolo[1,5-a]pyrimidine-6-carbonitrile]: the “Exposure after subcutaneous (SC) dose relative to oral route” value was determined as 32 ×. The Cmax (CD1, mouse, plasma, sc, 10 mg/kg, s.c, 10 mg/kg, read-out: Cmax (head Co*/)) turned out to be 1350 ng/mL. Also, the Tmax (CD1, mouse, plasma, sc, 10 mg/kg, s.c, 10 mg/kg, read-out: Tmax (head Tma)) was found to be 30 min.
